Data as given in ChEMBL document CHEMBL1134889, “Clarification of mechanism of human sputum elastase inhibition by a new inhibitor, ONO-5046, using electrospray ionization mass spectrometry” (Bioorg Med Chem Lett, 2002).

What was measured:
Cavia porcellus [1] = test: Percent inhibition effect of ONO-5046 on the increase of skin capillary permeability induced by HNE in guinea pigs in vivo on administration of 3 mg/Kg dose iv in guinea pig; format: functional
Cavia porcellus [2] = test: Percent inhibition effect of ONO-5046 on the increase of skin capillary permeability induced by HNE in guinea pigs in vivo on administration of 10 mg/Kg dose iv in guinea pig; format: functional

CC(C)(C)C(=O)Oc1ccc(S(=O)(=O)Nc2ccccc2C(=O)NCC(=O)O)cc1
inhibition in vivo at 3 mg/kg (Cavia porcellus [1]): 31.7% | inhibition in vivo at 10 mg/kg (Cavia porcellus [2]): 51.8%
